ChEMBL document CHEMBL5357036, “Latest developments in coumarin-based anticancer agents: mechanism of action and structure-activity relationship studies” (RSC Med Chem, 2024)
Converted amounts (≈) assume the structure as drawn. Values belong to the compound of their own block, whether it stands above or below them.

Tests used:
MCF7 [1] = experiment: Cytotoxicity against human MCF7 cells assessed as cell growth inhibition measured after 48 hrs by MTT assay; type: functional, cell-based; conditions: MCF7, 48 h
HepG2 [2] = experiment: Cytotoxicity against human HepG2 cells assessed as cell growth inhibition measured after 48 hrs by MTT assay; type: functional, cell-based; conditions: HepG2, 48 h
K562 [3] = experiment: Cytotoxicity against human K562 cells assessed as reduction in cell growth by MTT assay; type: functional, cell-based
MCF7 [4] = experiment: Cytotoxicity against human MCF7 cells assessed as reduction in cell growth incubated for 48 hrs by MTT assay; type: functional, cell-based; conditions: MCF7, 48 h
A549 = experiment: Cytotoxicity against human A549 cells assessed as reduction in cell growth incubated for 48 hrs by MTT assay; type: functional, cell-based; conditions: A549, 48 h
MCF7 [5] = experiment: cells; conditions: Homo sapiens, MCF7, 48 h
Description: Anticancer activity against human MCF7 cells assessed as inhibition of cell growth incubated for 48 hrs by SRB assay

K562 [6] = experiment: Cytotoxicity against human K562 cells assessed as reduction in cell viability incubated for 72 hrs by MTT assay; type: functional, cell-based; conditions: K562, 72 h
MDA-MB-231 = experiment: Antiproliferative activity against human MDA-MB-231 cells assessed as reduction in cell viability measured after 72 hrs under hypoxia condition by MTT assay; type: functional, cell-based; conditions: MDA-MB-231, 72 h
MCF7 [7] = experiment: Antiproliferative activity against human MCF7 cells assessed as reduction in cell proliferation by CCK-8 assay; type: functional, cell-based
HepG2 [8] = experiment: Antiproliferative activity against human HepG2 cells assessed as reduction in cell viability; type: functional, cell-based
A2780 = experiment: Antiproliferative activity against human A2780 cells assessed as reduction in cell viability incubated for 48 hrs by MTT assay; type: functional, cell-based; conditions: A2780, 48 h
Hep 3B2 = experiment: Antiproliferative activity against human Hep3B cells assessed as inhibition of cell viability after 72 hrs by CCK-8 assay; type: functional, cell-based
OVCAR-3 = experiment: Antiproliferative activity against human OVCAR-3 cells assessed as cell viability measured after 72 hrs incubation by MTT assay; type: functional, cell-based; conditions: OVCAR-3, 72 h
T47D = experiment: Anticancer activity against human T47D cells assessed as cell growth inhibition; type: functional, cell-based
MCF7 [9] = experiment: Growth inhibition of human MCF7 cells incubated for 48 hrs by SRB assay; type: functional
[10] = Cytotoxicity against green monkey COS-7 cells; type: toxicity, cell-based; conditions: green monkey (Chlorocebus aethiops)
Caco-2 = experiment: Cytotoxicity against human Caco-2 cells assessed as reduction in cell viability incubated for 72 hrs by MTT assay; type: functional, cell-based; conditions: Caco-2, 72 h
4T1 = experiment: Cytotoxicity against mouse 4T1 cells assessed as inhibition of cell proliferation incubated for 72 hrs by MTT assay; type: functional, cell-based; conditions: 4T1, 72 h
HeLa = experiment: Anticancer activity against human HeLa cells assessed as cell growth inhibition; type: functional
HOS = experiment: Cytotoxicity against human HOS cells assessed as reduction in cell growth incubated for 5 days by MTT assay; type: functional, cell-based; conditions: 120 h
HCT-116 = experiment: Cytotoxicity against human HCT-116 cells assessed as reduction in cell viability incubated for 48 hrs by SRB assay; type: functional, cell-based; conditions: HCT-116, 48 h
HT-29 = experiment: Cytotoxicity against human HT-29 cells assessed as reduction in cell viability incubated for 48 hrs by SRB assay; type: functional, cell-based; conditions: HT-29, 48 h
HepG2 [11] = experiment: Antiproliferative activity against human HepG2 cells assessed as reduction in cell viability incubated for 48 hrs by MTT assay; type: functional, cell-based; conditions: HepG2, 48 h
MCF7 [12] = experiment: Antiproliferative activity against human MCF7 cells assessed as cell growth inhibition; type: functional, cell-based
MCF7 [13] = experiment: Antiproliferative activity against human MCF7 cells assessed as reduction in cell viability incubated for 72 hrs by MTT assay; type: functional, cell-based; conditions: MCF7, 72 h
SW480 = experiment: Cytotoxicity against human SW480 cells assessed as reduction in cell viability incubated for 48 hrs by MTT; type: functional, cell-based; conditions: SW480, 48 h
MCF7 [14] = experiment: cells; conditions: Homo sapiens, MCF7, 24 h
Description: Cytotoxicity against human MCF7 cells assessed as reduction in cell viability incubated for 24 hrs by MTT assay

Structure (SMILES): Cc1cc(-c2cc3cc(Cl)ccc3oc2=O)n(-c2nc(-c3ccc(Cl)cc3)cs2)n1
IC50 (MCF7 [1]): 4.42 µM | IC50 (HepG2 [2]): 3.06 µM

Structure (SMILES): COc1ccc(-c2csc(-n3nc(C)cc3-c3cc4cc(Cl)ccc4oc3=O)n2)cc1
IC50 (MCF7 [1]): 4.03 µM

Structure (SMILES): Cc1c(Cc2ccc(NC(=O)Nc3ccc(F)c(F)c3)nc2)c(=O)oc2cc(O)c(C(C)(C)C)cc12
IC50 (K562 [3]): 1.66 µM

Structure (SMILES): O=C(CNCc1cccnc1)Nc1cc2ccccc2oc1=O
IC50 (MCF7 [4]): 69.1 µM | IC50 (A549): 69.1 µM

Structure (SMILES): COc1cccc(-c2cn(Cc3cc(=O)oc4cc(O)c(O)cc34)nn2)c1
IC50 (K562 [6]): 17.9 µM

Structure (SMILES): Cc1c(Cc2ccccc2)c(=O)oc2cc(OS(N)(=O)=O)ccc12
IC50 (MCF7 [7]): 0.032 µM

Structure (SMILES): CCN(CC)c1ccc2cc(C(=O)N3CCN(CCC[C@H]4O[C@@H]5O[C@@]6(C)CC[C@H]7[C@H](C)CC[C@@H]([C@H]4C)[C@@]57OO6)CC3)c(=O)oc2c1
IC50 (HepG2 [8]): 3.05 µM | IC50 (A2780): 5.82 µM | IC50 (Hep 3B2): 3.76 µM | IC50 (OVCAR-3): 4.6 µM

Structure (SMILES): Cc1cc(-c2cc3ccccc3oc2=O)n(-c2nc(-c3ccc(Cl)cc3)cs2)n1
IC50 (HepG2 [2]): 3.74 µM

Structure (SMILES): CCCCCCc1c(C)c2ccc(OS(N)(=O)=O)cc2oc1=O
IC50 (MCF7 [7]): 0.008 µM

Structure (SMILES): O=c1oc2ccccc2cc1-c1csc(N/N=C/c2cc([N+](=O)[O-])ccc2Cl)n1
IC50 [10]: 1.96 µM

Structure (SMILES): COc1ccccc1-c1cn(Cc2cc(=O)oc3cc(O)c(O)cc23)nn1
IC50 (Caco-2): 9.7 µM

Structure (SMILES): O=C(Cc1cc(=O)oc2cc(O)ccc12)NCCCCCCCCNc1c2c(nc3ccccc13)CCCC2
IC50 (4T1): 7 µM

Structure (SMILES): Cn1cc(C(C)(c2cc3ccccc3oc2=O)c2cn(C)c3ccccc23)c2ccccc21
IC50 (HOS): 12.2 µM

Structure (SMILES): CCCc1cc(=O)oc2cc(Nc3nc(-c4ccc(Cl)cc4)cs3)ccc12
IC50 (HCT-116): 0.25 µM | IC50 (HT-29): 0.25 µM

Structure (SMILES): Cc1cc(=O)oc2cc(OCC(=O)Nc3ccc(C(=O)/C=C/c4ccco4)cc3)ccc12
IC50 (MCF7 [13]): 9.62 µg/mL (≈ 22.4 µM)

Structure (SMILES): COc1cc(/C=C/c2ccc3ccc(=O)oc3c2)ccc1O
IC50 (SW480): 5.33 µM

Structure (SMILES): Cc1cc(=O)oc2cc(Nc3nc(-c4ccc(Br)cc4)cs3)ccc12
IC50 (HCT-116): 0.25 µM | IC50 (HT-29): 0.25 µM

Structure (SMILES): COc1ccc(/C=C/C(=N/O)c2ccc(NC(=O)COc3ccc4c(C)cc(=O)oc4c3)cc2)cc1
IC50 (MCF7 [13]): 20.9 µg/mL (≈ 43.1 µM)

Next, values leading:

IC50 (MCF7 [5]): 5.41 µM
Structure (SMILES): Cc1ccc(/N=N/c2sc(N3N=C(c4c(O)c5ccccc5oc4=O)CC3c3ccc(N(C)C)cc3)nc2-c2ccccc2)cc1 (configuration not stated)

IC50 (MDA-MB-231): 0.25 µM
Structure (SMILES): COC(=O)c1cccc(NC(=O)c2ccc(-n3cc(COc4cc(=O)oc5ccccc45)nn3)cc2)c1

IC50 (MCF7 [5]): 5.41 µM
Structure (SMILES): CN(C)c1ccc(C2CC(c3cc4ccccc4oc3=O)=NN2c2nc(-c3ccccc3)c(/N=N/c3ccc(Cl)cc3)s2)cc1 (configuration not stated)

IC50 (T47D): 2.32 µM | GI50 (MCF7 [9]): < 10 µg/mL
Structure (SMILES): O=C(/C=C/c1ccc(OCCN2CCCCC2)cc1)c1cc2ccccc2oc1=O

IC50 (MCF7 [5]): 5.41 µM
Structure (SMILES): CN(C)c1ccc(C2CC(c3c(O)c4ccccc4oc3=O)=NN2c2nc(-c3ccccc3)c(/N=N/c3ccc(Cl)cc3)s2)cc1 (configuration not stated)

GI50 (HeLa): 36.2 µg/mL (≈ 84.1 µM)
Structure (SMILES): Cc1ccc(S(=O)(=O)n2c(-c3cc(=O)oc4ccc(C)cc34)nc3ccccc32)cc1

GI50 (HeLa): 35.3 µg/mL (≈ 79.1 µM)
Structure (SMILES): COc1ccc2oc(=O)cc(-c3nc4ccccc4n3S(=O)(=O)c3ccc(C)cc3)c2c1

IC50 (MCF7 [5]): 5.41 µM
Structure (SMILES): CC1SC(N2N=C(c3cc4ccccc4oc3=O)CC2c2ccc(N(C)C)cc2)=NC1=O (configuration not stated)

IC50 (HepG2 [11]): 5.03 µM
Structure (SMILES): C/C(=N\NC1=NCC(=O)S1)c1ccc(NS(=O)(=O)c2ccc3oc(=O)ccc3c2)cc1

IC50 (MCF7 [12]): 49 µM
Structure (SMILES): O=C1CCn2cc(nn2)CCOc2ccccc2C(C(=O)c2cc3ccccc3oc2=O)N1 (configuration not stated)

IC50 (MCF7 [14]): 11.2 µM
Structure (SMILES): C/C(=N\Nc1nc(C)c(/N=N/c2ccc(C)cc2)s1)c1cc2cc(/N=N/c3ccccc3)ccc2oc1=O
